Series [1] has as its system human neutrophils. The series can be described thus: microfluidic perfusion assay: neutrophil rolling and arrest on P-selectin/ICAM-1 with IL-8. The series is classed as cell-based. To be noted: 10 μM. On the procedure:
The assembly of the microfluidic devices used in this study and the coating of coverslips with recombinant human P-selectin-Fc and ICAM-1-Fc with or without IL-8 have been described previously. Briefly, coverslips were coated with P-selectin-Fc (2 μg·ml^−1) and ICAM-1-Fc (10 μg·ml^−1) without or with IL-8 (10 μg·ml^−1) for two hours and then blocked for one hour with casein (1%) at RT. After coating, coverslips were sealed with polydimethylsiloxane chips by magnetic clamps to create flow chamber channels ˜29 μm high and ˜300 μm across. By modulating the pressure between the inlet well and the outlet reservoir, 6 dyn·cm^−2 wall shear stress was applied in all experiments.
To study the rolling and arrest of neutrophils, isolated human neutrophils (5×10^6 cells·ml^−1) were perfused in the microfluidic device over a substrate of recombinant human P-selectin-Fc and recombinant human ICAM-1-Fc with or without IL-8 under a shear stress of 6 dyn·cm^−2. […] Time-lapse images (one frame per second) were taken by an IX71 inverted research microscope (Olympus America) with a 40× NA 0.9 air objective during the perfusion to quantify rolling velocity. The quantification was done using the “Manual tracking” plugin in FIJI-ImageJ v2.0. Cell tracks (FIG. 1A) and rolling velocity were obtained (FIGS. 1B, 2C). After perfusion with neutrophils for 10 minutes, the microfluidic device was washed with RPMI-1640 without phenol red plus 2% HSA for 5 minutes. Then, the arrested neutrophils were counted in nine fields-of-view per group (FIG. 1D).

Series [2] deals with mouse myocardial I/R injury. The series can be described thus: neutrophil recruitment in mouse myocardial I/R injury (multi-photon microscopy, flow cytometry). The conditions noted are these: I/R 35/60 minutes. The series is classed as in vivo. The text has this:
C57BL/6J wild-type mice (000664; JAX) were originally obtained from the Jackson Laboratory. LysM-EGFP or Lyz2-EGFP mice were originally obtained from Albert Einstein College of Medicine through a material transfer agreement. Mice were fed a standard rodent chow diet and were housed in microisolator cages in a pathogen-free facility in the Center for Comparative Medicine at UConn Health. All experiments followed the UConn Health Institutional Animal Care and Use Committee (IACUC) guidelines, and approval for the use of rodents was obtained from the UConn Health IACUC according to criteria outlined in the Guide for the Care and Use of Laboratory Animals from the National Institutes of Health. Both male and female mice aged from 12 to 16 weeks were used in the experiments.
Mice were subjected to 35 minutes of myocardial ischemia and 1 (for multi-photon microscopy and flow cytometry) or 22-26 (for TTC-phthalo-blue staining) hours of reperfusion. […] Briefly, anesthesia was induced with an intraperitoneal injection of ketamine hydrochloride (125 mg·kg^−1) and xylazine (12.5 mg·kg^−1). Mice were intubated with 24G×3/4″ Surflo i.v. catheter and ventilated using MiniVent 845 (Harvard Apparatus).
Surgeries were performed under an SMZ168 Stereo Zoom microscope (Motic). Ischemia was achieved by ligating the left anterior descending coronary artery (LAD) using a 6-0 silk suture with a section of PE-10 tubing placed over the LAD, 1 mm from the tip of the normally positioned left atrium. One important problem in drug administration is water solubility, which greatly affects drug absorption and bioavailability. […] In clinics, the primary percutaneous coronary intervention aims to be performed less than 90 min (within 60 min is preferable) after the patient arrives. […] After occlusion for 35 minutes, reperfusion was initiated by releasing the ligature and removing the PE-10 tubing. The chest wall was closed, the animal extubated, and body temperature was maintained by use of a 37° C. warm pad. Hearts were harvested 1 or 22-26 hours later. The loosened suture was left in place and then retied for the purpose of evaluating the ischemic area. Sham control and no drug administered control were performed as well.
To assess the neutrophil recruitment in myocardial I/R injury, LysM-EGFP mice underwent 35 minutes of ischemia and 1 hour of reperfusion. […] After being fixed with 1% PFA and washes with ice-cold PBS, cell fluorescence was assessed with an LSRII (BD Biosciences, San Jose, CA) and analyzed with FlowJo software (version 10.6). […]

For series [3], the system named is human neutrophils. The conditions noted are these: 1 and 4 hours of incubation; previous study; cited from earlier work.
For the next series, the system named is neutrophils. The conditions noted are these: reported; cited from earlier work.

The values that follow come from patent publication US20240041838A1, “METHODS AND COMPOSITIONS FOR INHIBITION OF NEUTROPHIL RECRUITMENT IN MYCOCARDIAL ISCHEMIA-REPERFUSION INJURY” (University of Connecticut, priority 2022, published 2024).

With `CC(C)(C)C(=O)/C(=C\c1cccc([N+](=O)[O-])c1)n1cncn1` [Nexinhib20, 4,4-dimethyl-1-(3-nitrophenyl)-2-(1H-1,2,4-triazol-1-yl)-1-penten-3-one], the “effect of IL-8 on rolling velocity of treated neutrophils” value in the series with human neutrophils [1] (RT 1 hour) was “did not slow down”. In addition, in the series on human neutrophils [1] (RT 1 hour before perfusion), the “neutrophil arrest on IL-8 substrate” value is on record as “failed to arrest”. Also, in the series on human neutrophils [1] (RT 1 hour, P-selectin/ICAM-1/IL-8, 6 dyn·cm^−2), the “decrease of number of arrested neutrophils” value was “about 90%”. The “number of arrested neutrophils” value with human neutrophils [1] (RT 1 hour, P-selectin/ICAM-1/IL-8, 6 dyn·cm^−2, vehicle about 200) was “about 20 cells per field-of-view”. The “neutrophils retained in the blood circulation compared to vehicle controls” value in series [2] (1 μmol per mouse i.p.) is “doubled”. The “percentage of neutrophils in heart leukocytes” value in series [2] (1 μmol per mouse i.p., vehicle about 50%) is recorded as “about 30%”. Further, in series [2] (1 μmol per mouse i.p., vehicle about 6000), the “heart neutrophil counts (CD45^+Ly6G^+)” value is given as “about 2000”. Further, in series [2] (LysM-EGFP mice, 1 μmol per mouse i.p. 30 minutes before reperfusion), the “LysM-GFP^+ leukocyte recruitment to the coronary artery (EGFP fluorescence)” value is “significantly limited”. In the series on human neutrophils [3], the “cell death compared to DMSO vehicle controls” value is recorded as “did not induce a significant increase in cell death”. Besides, the “inhibition of neutrophil extracellular superoxide anion production” value in the series on neutrophils is “about 50%”.
